Experiment [1] has as its system PfNF54-s16-GFP late (IV–V) stage gametocytes. Briefly: Image-based gametocyte viability assay. Type of experiment: cell-based, P. falciparum. The note with it: Plasmodium falciparum; stages IV–V, 72 h; read-out: IC50 Late-stage Gametocytes (mean ± SD). The protocol: (§1) Viability assays were performed as described previously ([32], [33]) against PfNF54-s16-GFP early(I–III), late (IV–V), and mature (V) stage gametocytes. Gametocytes were assessed at the appropriate time points following gametogenesis; early stage (day 2), late stage (day 8), and mature stage (day 12). Compounds diluted in 4% DMSO were transferred into 384-well imaging plates; gametocytes prepared as described previously (35) were added, and plates were incubated for 72 h in 5% CO2, 5% O2, and 60% humidity at 37°C. After 72 h incubation, 5 µL of MitoTracker Red CMH2XRos in phosphate buffered saline (PBS) was added per well, and plates were incubated overnight. Image acquisition and analysis were undertaken on the Opera QEHS micro-plate confocal imaging system. An Acapella-based script using the CMH2XRos fluorescent signal and the GFP-designated object quantifying viable stage-dependent parasite morphology identified gametocytes. Gametocyte viability was calculated as a percentage of the positive (5 µM puromycin) and negative (0.4% DMSO) controls. IC50 values were calculated using a 4-parameter log dose, non-linear regression analysis, with sigmoidal dose response (variable slope) curve fit using GraphPad Prism (ver 4.0). No constraints were used in the curve fit. […] Experiments were performed as two or three biological replicates in duplicate.

Experiment [2] has as its system PfNF54-s16-GFP mature (V) stage gametocytes. Briefly: Image-based gametocyte viability assay. It counts as cell-based, P. falciparum. The note with it: Plasmodium falciparum, 72 h, read-out: IC50 Mature-stage Gametocytes (mean ± SD). The protocol:
as §1

Experiment [3] deals with PfNF54-s16-GFP early (I–III) stage gametocytes. Nature of the experiment: Image-based gametocyte viability assay. Type of experiment: cell-based, P. falciparum. As to conditions: Plasmodium falciparum, 72 h, read-out: IC50 Early-stage Gametocytes (mean ± SD). The protocol:
Viability assays were performed as described previously ([32], [33]) against PfNF54-s16-GFP early(I–III), late (IV–V), and mature (V) stage gametocytes. Gametocytes were assessed at the appropriate time points following gametogenesis; early stage (day 2), late stage (day 8), and mature stage (day 12). Compounds diluted in 4% DMSO were transferred into 384-well imaging plates; gametocytes prepared as described previously (35) were added, and plates were incubated for 72 h in 5% CO2, 5% O2, and 60% humidity at 37°C. After 72 h incubation, 5 µL of MitoTracker Red CMH2XRos in phosphate buffered saline (PBS) was added per well, and plates were incubated overnight. Image acquisition and analysis were undertaken on the Opera QEHS micro-plate confocal imaging system. An Acapella-based script using the CMH2XRos fluorescent signal and the GFP-designated object quantifying viable stage-dependent parasite morphology identified gametocytes. Gametocyte viability was calculated as a percentage of the positive (5 µM puromycin) and negative (0.4% DMSO) controls. IC50 values were calculated using a 4-parameter log dose, non-linear regression analysis, with sigmoidal dose response (variable slope) curve fit using GraphPad Prism (ver 4.0). No constraints were used in the curve fit. Chloroquine, artesunate, pyronaridine, pyrimethamine, dihydroartemisinin (DHA), and methylene blue were used as control compounds. Experiments were performed as two or three biological replicates in duplicate.

For experiment [4], the system named is P. falciparum Dd2 parasites. Nature of the experiment: Fractional inhibitory concentration, artemisinin and MMV1557817 interaction. It counts as cell-based. The protocol:
Fractional inhibitory concentrations (FIC) were determined as previously described ([44]). […] The FIC for each drug was determined by EC50 of drug in a mixture/EC50 of drug alone, and the sum of FIC was determined by the addition of the two individual FIC values. Synergistic FIC is described as <1, additive = 1 < 2, and antagonism > 2 ([44]).

In experiment [5] the test system is MMV1557817-resistant parasites. Nature of the experiment: 72 h killing assay, MMV1557817-resistant parasites versus parental Dd2. It counts as cell-based, P. falciparum.
In experiment [6] the test system is P. vivax clinical isolates. Nature of the experiment: Ex vivo drug susceptibility assay (schizont maturation) on clinical isolates. Type of experiment: cell-based. How it is done: (§2) Plasmodium isolates were collected from patients attending public health clinics in Timika (Papua, Indonesia), a region endemic for multidrug-resistant strains of P. vivax and P. falciparum ([38][–][40]). Patients with symptomatic malaria presenting to an outpatient facility were recruited into the study if infected with either P. falciparum or P. vivax, with a parasitemia of between 2,000 µL^−1 and 80,000 µL^−1, and the majority (>60%) of asexual parasites at the ring stage of development. Venous blood (5 mL) was collected by venipuncture, and after removal of patient white blood cells using Plasmodipur filters (EuroProxima B.V., The Netherlands), packed infected red blood cells (iRBCs) were used for the ex vivo drug susceptibility assay.
(§3) Drug plates were pre-dosed by diluting the compounds in 50% methanol followed by lyophilization and storage at 4°C. Drug susceptibility of P. vivax and P. falciparum isolates was measured using a protocol modified from the WHO microtest as described previously ([40], [41]). […] A candle jar was used to mature the parasites at 37.0°C for 35–56 h. […] Thick blood films made from each well were stained with 5% Giemsa solution for 30 min and examined microscopically. The number of schizonts per 200 asexual-stage parasites was determined for each drug concentration and normalized to the control well without drug. The dose response data were analyzed using non-linear regression analysis, and the EC50 value was derived using an inhibitory sigmoid Emax model (In Vitro Analysis and Reporting Tool [IVART] [42, 43]).

Experiment [7] has as its system P. falciparum clinical isolates. Described as above. It counts as cell-based. How it is done: as §2, §3
In the next experiment the test system is Pf3D7. Briefly: Parasite reduction ratio assay. It counts as cell-based, P. falciparum. How it is done:
Assays were performed as described previously with some alterations ([37]). […] Specifically, media containing compound was placed in wells every 24 h for up 120 h. […] Parasite growth was measured at day 21 using SYBR green I as described above. Fluorescence was used to determine at what treatment day wells became positive for growth when compared with the well before it; greater than double the fluorescence was determined to be a positive well. […] Experiments were performed in two or three biological replicates in quadruplicate.

Setting [8] is: Plasmodium vivax, ex vivo clinical isolates, n = 6, read-out: P. vivax median EC50 (range).
Where [9] appears, read: ex vivo clinical isolates, n = 6, read-out: P. vivax median EC50 (range).
Where [10] appears, read: Plasmodium falciparum, ex vivo clinical isolates, n = 15, read-out: P. falciparum median EC50 (range).

Like-named read-outs stand apart in the source and are kept apart here.

In the case of `COc1ccc2nc3cc(Cl)ccc3c(Nc3cc(CN4CCCC4)c(O)c(CN4CCCC4)c3)c2n1` [pyronaridine], the figures for the IC50 in experiment [1], in experiment [2] and in experiment [3] (stages I–III) were 2280 ± 679 nM, 1250 ± 120 nM and 67 ± 7 nM, respectively.

Consider `C[C@@H]1CC[C@H]2[C@@H](C)C(=O)O[C@@H]3O[C@@]4(C)CC[C@@H]1[C@]32OO4` [artemisinin, reference compound], for which the “artemisinin mean FIC ± SEM” value in experiment [4] (ratio MMV1557817:artemisinin 0:5) is recorded as 1.00 ± 0.12; in experiment [4] (ratio MMV1557817:artemisinin 1:4), 0.75 ± 0.07; in experiment [4] (ratio MMV1557817:artemisinin 2:3), 0.37 ± 0.06; in experiment [4] (ratio MMV1557817:artemisinin 3:2) it was 0.16 ± 0.03; in experiment [4] (ratio MMV1557817:artemisinin 4:1), 0.06 ± 0.01. Further, the “change of susceptibility compared with parental Dd2” value in experiment [5] is listed as “marginally but significantly sensitized”.

Consider `COc1ccc(C[C@H](N)C(=O)N[C@H]2[C@@H](O)[C@H](n3cnc4c(N(C)C)ncnc43)O[C@@H]2CO)cc1` [puromycin], for which the figures for the IC50 in experiment [1], in experiment [2] and in experiment [3] (stages I–III) were 94 ± 5 nM, 73 ± 24 nM and 163 ± 18 nM, respectively.

Regarding `OC(c1cc(C(F)(F)F)nc2c(C(F)(F)F)cccc12)C1CCCCN1` (stereo not drawn) [mefloquine], the EC50 in experiment [6] (setting [8]) came to 11.2 nM; in experiment [6] (setting [9]) it was 11 nM; in experiment [7] (setting [10]) it was 10 nM.

Consider `Clc1ccc2c(N3CCN(CCCN4CCN(c5ccnc6cc(Cl)ccc56)CC4)CC3)ccnc2c1` [piperaquine], for which the half-maximal effective concentration (EC50) in experiment [6] (setting [8]) came out at 46.6 nM; in experiment [6] (setting [9]), 47 nM; in experiment [7] (setting [10]), 60.8 nM; in experiment [7] (ex vivo clinical isolates, n = 15, read-out: P. falciparum median EC50 (range)) it was 61 nM.

For the compound `CN(C)c1ccc2nc3ccc(=[N+](C)C)cc-3sc2c1` [Methylene Blue, methylene blue], the figures for the IC50 in experiment [1], in experiment [2] and in experiment [3] (stages I–III) were 52 ± 2 nM, 63 ± 26 nM and 110 ± 4 nM, respectively.

For `C[C@H]1[C@@H](O)O[C@@H]2O[C@@]3(C)CC[C@H]4[C@H](C)CC[C@@H]1[C@@]24OO3` [DHA, dihydroartemisinin], the concentration for half-maximal inhibition (IC50) in experiment [1] came to 35 ± 12 nM; in experiment [2], 103 ± 30 nM; in experiment [3] (stages I–III) it was 16 ± 2 nM.

With `CCN(CC)CCCC(C)Nc1ccnc2cc(Cl)ccc12` (stereo not drawn) [chloroquine], the concentration giving a half-maximal response (EC50) came out at 36 nM in experiment [6] (Plasmodium vivax, read-out: P. vivax median EC50 (range), ex vivo clinical isolates, n = 6); 36.4 nM in experiment [6] (read-out: P. vivax median EC50 (range), ex vivo clinical isolates, n = 6, listed as CQ); 65 nM in experiment [7] (Plasmodium falciparum, read-out: P. falciparum median EC50 (range), ex vivo clinical isolates, n = 15); 64.8 nM in experiment [7] (read-out: P. falciparum median EC50 (range), ex vivo clinical isolates, n = 15, listed as CQ). Besides, the “99.9% PCT” value with Pf3D7 (Pf3D7, 10× EC50) was 53 h. In addition, the Lag phase in the experiment with Pf3D7 (Pf3D7, 10× EC50) is 0 h. For the same compound, the “Log (PRR)” value with Pf3D7 (Pf3D7, 10× EC50, over one cycle) is 3.9 ± 0.2. In experiment [3], the IC50 amounted to 157 ± 3.5 nM.
